melting point	SMILES
91 to 92 °C	O=[N+]([O-])c1ccc(CS(=O)(=O)Cl)cc1
61 °C	CC1=C(C#N)C(c2cccc([N+](=O)[O-])c2)C(C(=O)OC(C)(C)C)=C(C)N1 (stereo not given)
214 to 218 °C	Nc1ncc([N+](=O)[O-])cc1Br
90 to 91 °C	CSC(Cl)=NS(=O)(=O)c1ccc(C)cc1
36 °C	Nc1cc(C(F)(F)F)c(Br)cc1F
298 °C	O=C(NN=Cc1ccc([N+](=O)[O-])o1)c1ccc(O)cc1
193 to 194 °C	CCC(C)/N=C(\C)c1c(O)c2ccccc2n(-c2ccccc2)c1=O (stereo not given)
116 °C	CCOC(=O)C=Cc1cc(C=CC(=O)OCC)c([N+](=O)[O-])cc1[N+](=O)[O-]
36 to 39 °C	CCOC(=O)c1sc(-c2ccccc2)nc1C
191 to 192 °C	CC1(c2ccccc2)CC(C(=NNC(O)=S)c2cc3ccccc3o2)C1 (stereo not given)
102 to 104 °C	Cc1cccc(Cn2nc(C(C)(C)C)cc2C(=O)NN)c1
5.5 °C	CCCCCCC(O)CC=CCCCCCCCC(=O)O (stereo not given)
126 °C	COc1ccc(S(N)(=O)=O)cc1F
177 to 178 °C	O=C(O)c1ccc(-c2cccs2)s1
210 °C	O=C1OCCOC(=O)C2CCCCC2C(=O)OCCOC(=O)C2CCCCC12 (stereo not given)
164 °C	CC(=NCc1ccccc1)c1c(O)c2ccccc2n(-c2ccccc2)c1=O
65 °C	COc1cc(N=C=S)cc(OC)c1OC
66 °C	O=C(OCCOc1ccc(Cl)cc1Cl)c1ccccc1
34 °C	O=[N+]([O-])c1ccc(Br)cc1C(F)(F)F
93 °C	COC(=O)C#Cc1cccc(C#CC(=O)OC)c1
88 to 92 °C	Cc1ccc2c(c1)C(=O)OC2=O

melting point	SMILES
59 to 60 °C	OCc1ccc(Br)cn1
67 to 68 °C	Cc1cc(Cl)cc(C=O)c1O
57 °C	OCCN(CCO)c1ccccc1
51 to 55 °C	CCOC(=O)c1cc(C(=O)OCC)[nH]n1
152 °C	Nc1c(Br)cc(Br)cc1C(O)c1ccccc1 (stereo not given)
184 °C	CCc1ccc(CCOc2ccc(CC3SC(=O)NC3=O)cc2)nc1 (stereo not given)
173 to 174 °C	CCOc1c2cccc1Cc1cccc(c1O)Cc1cccc(c1OP(=O)(OCC)OCC)Cc1cccc(c1O)C2
52 °C	Cn1c2c(c3ccccc31)CCCC2
-9 °C	CCOC(=O)CC(=O)C(C)C
106 °C	CC1=C(O)C(=O)CC1
209 °C	COC(=O)C1=C(C(=O)OC)Cc2cc3c(cc2C1)CC(C(=O)OC)=C(C(=O)OC)C3
284 °C	O=S(=O)(O)CCCN1CCOCC1
134 °C	COC(=O)Oc1ccccc1C(=O)O
157 to 164 °C	Cc1ccccc1CC(NC(=O)OCC1c2ccccc2-c2ccccc21)C(=O)O (racemic)
200 to 201 °C	CC(CCC(=O)O)C1CCC2C3CC(O)C4=CC(O)CCC4(C)C3CCC12C (stereo not given)
101 to 105 °C	O=C(NCCCC[C@H](NC(=O)OCc1ccccc1)C(=O)O)OCC1c2ccccc2-c2ccccc21
66 °C	C#CCOCc1cc(COCC#C)c(COCC#C)cc1COCC#C
285 °C	N=C(N)NCCCC(NC(=O)c1ccccc1)C(=O)O (stereo not given)
237 °C	c1ccc(-c2ccc(-c3nnc(-c4ccc(-c5ccccc5)cc4)o3)cc2)cc1
117 °C	N#Cc1ccc(C2CCCc3cncn32)cc1 (stereo not given)
88.5 °C	CC1(C)C=CC=C(C(=O)O)C=C1

Continued, compound first:

SMILES	melting point
CCOC(=O)c1ccccc1C(=O)c1ccccc1	59.5 °C
Cc1cccc(C)c1N(C)C	-36 °C
COc1cccc(OC)c1N	77 °C
COc1ccc(OC)c(CCl)c1	69 to 71 °C
FC(F)=C(Cl)C(F)(F)F	-130 °C
OCc1cc(O)cc(O)c1	181 to 186 °C
O=C(Cl)c1ccsc1Br	61 to 62 °C
Cc1onc(-c2c(F)cccc2Cl)c1C(=O)Cl	51 °C
N#Cc1ccc(-c2cccs2)s1	100 °C
C=C1C2CC(C(=C(c3ccccc3)c3ccccc3)C2c2ccccc2)C1(C)C (stereo not given)	115 °C
Cc1cc(C)n(N=Cc2ccc(F)cc2)c(=O)c1C#N	186 to 188 °C
COC(=O)c1ccc(O)c(OC)c1	64 °C
Ic1ccc(Cn2cccn2)cc1	80 to 81 °C
Cc1cc(C)n(N=Cc2ccc([N+](=O)[O-])cc2)c(=O)c1C#N	260 to 261 °C
CCCC(CC)C1(CC)C(=O)NC(=O)NC1=O (stereo not given)	122 °C
Oc1ccc(Cl)c2ccccc12	117 to 120 °C
NC(=O)C1CO1 (stereo not given)	33 °C
CCCC(CC(OCC)OCC)OCC (stereo not given)	-100 °C
NC(=O)c1ccc(F)cc1Cl	152 to 154 °C
Clc1ccc(C2C3CCc4ccccc4C3=NN2c2ccccc2)cc1 (stereo not given)	168 to 170 °C
CC(C)(c1ccc(OCC2CO2)cc1)c1ccc(OCC2CO2)cc1 (stereo not given)	10 °C

SMILES	melting point
O=C(O)Cc1ccc2c(c1)OCO2	128 to 132 °C
CCOC(=O)c1sc(SCc2ccccc2)c2c1CCCC2=O	139 to 141 °C
CCOC(=O)c1ncoc1-c1ccccc1	32 to 35 °C
Ic1ccccc1I	27 °C
CC(C)(C)OC(=O)N1CCN(Cc2cccc(N)c2)CC1	107 to 108 °C
Cc1cc(C=O)cc(C)c1O	114 °C
O=C(CBr)c1ccco1	34 °C
COC(=O)c1scc(S(=O)(=O)C(C)C)c1S(=O)(=O)Cl	128 to 129 °C
O=C1NN(c2ccccc2)C(=O)C1=Cc1ccc(F)cc1	300 °C
CC12CC3(C)CC(C)(C1)CC(Br)(C2)C3	101 to 102 °C
C=C1C(C)C2C(Cc3ccccc3)NC(=O)C23OC(=O)C=CC(O)CCCC(C)CC=CC3C1O (stereo not given)	218 to 223 °C
CC(=O)NC1CCCCC(NC(C)=O)CCCC1 (stereo not given)	296 to 297 °C
Nc1ncccc1C(=O)O	295 to 297 °C
O=Cc1cc([N+](=O)[O-])cc([N+](=O)[O-])c1O	72.5 °C
N#Cc1ccc(F)c(F)c1	50 °C
O=C(O)c1cscc1C(=O)O	227 to 231 °C
CCCC(=O)N(CSP(=S)(OC)OC)c1ccccc1Cl	42 °C
O=C(O)c1cc(S(=O)(=O)F)ccc1Cl	148 to 151 °C
CN(C)S(=O)N(C)C	31 °C
c1ccc(C(c2ccccc2)=P(c2ccccc2)(c2ccccc2)c2ccccc2)cc1	169 to 171 °C
N#Cc1c(F)cccc1Cl	58 °C

SMILES	melting point
CC(=O)N(C(C)=O)c1cc(C=CC(=O)O)ccc1C=CC(=O)O	310 to 315 °C
O=C1C=CC(=O)c2ccccc21	128 °C
COC(C)(C)OC	-47 °C
CC(=O)C=CC1C(C)=CCCC1(C)C (stereo not given)	< 25 °C
C=C1C(C)CCC2(C)C3=C(C(=O)C4(CC4C)C(O)C3=O)C(O)C(O)C12 (stereo not given)	194 °C
Cc1nnsc1C(=O)O	185 °C
NC(CCCC(F)(F)F)C(=O)O (stereo not given)	272 to 274 °C
O=C(Nc1cccc(Br)c1)c1cncc(Cl)n1	100 °C
NNc1ccc(F)c(Cl)c1	74 °C
FC(F)(F)c1cc(Cl)c2c(Cl)cc(Cl)cc2n1	111 to 114 °C
Nc1ccc2c(c1N)C(=O)c1ccccc1C2=O	290 °C
OC(c1ccc(F)cc1)(c1ccc(F)cc1)c1ccc(F)cc1	92 °C
CC(=O)O[C@@H]1CC[C@@]2(C)C(CC[C@@H]3[C@@H]2CC[C@@]2(C)[C@H]3CC[C@]2(O)/C=C/c2ccccc2)C1 (stereo not given in full)	160 to 164 °C
CN1C(=O)CN=C(c2ccccc2F)c2cc(Cl)ccc21	296 °C
Brc1ccc(-c2ccc(Br)cc2)cc1	167 °C
NC(Cc1ccc(F)cc1F)C(=O)O (racemic)	224 to 226 °C
O=C(c1ccc(C(=O)C(Cl)(Cl)Cl)cc1)C(Cl)Cl	136 °C
Oc1c(F)cc(F)cc1F	49.5 °C
Cc1ccc(CNC(=O)c2cc([N+](=O)[O-])cc([N+](=O)[O-])c2)c(C)c1	180 °C
CCCCCOc1ccc(/N=N/c2ccc(CCCC)cc2)cc1Cl	41.5 °C
N#Cc1ccc(OC2CCOCC2)nc1	134 to 135 °C

SMILES	melting point
CC=Cc1ccc(OC)c(OC)c1	18 °C
COC(=O)c1sccc1N1C(=O)C=CC1=O	130 to 131 °C
Cc1ccc(C(=O)O)cc1F	170 to 175 °C
Cc1cc(O)c(C(C)(C)C)cc1Sc1cc(C(C)(C)C)c(O)cc1C	162 °C
Cc1ccc(S(=O)(=O)OCc2c(F)c(F)c(F)c(F)c2F)cc1	78 °C
CCC(=O)OCN1C(=O)NC(c2ccccc2)(c2ccccc2)C1=O	171 °C
Cn1c(=O)c(C2=NNC(=O)C2=NNc2cccnc2)c(O)c2ccccc21	230 °C
NC(=S)c1ccccc1Br	83 to 85 °C
O=C(O)C=Cc1ccccc1Cl	209 to 212 °C
NC(=O)c1ccc2ccccc2c1	195 °C
Cc1onc(-c2c(Cl)cccc2Cl)c1CCl	61 to 63 °C
CS(=O)(=O)c1scc(-c2ccccc2)c1C#N	164 to 166 °C
CCCCCCCCC(=O)OCCCC	-38 °C
CC1CC(=O)c2cc(F)ccc2O1 (stereo not given)	71 °C
Fc1ccc(CN2CCNCC2)cc1	64 to 65 °C
O=C(c1ccccc1)c1ccccc1N=Nc1ccccc1C(=O)c1ccccc1	205 °C
CC(=O)OCCOc1cc(OCCOC(C)=O)c([N+](=O)[O-])cc1[N+](=O)[O-]	91 °C
CC(C)(C)C(C)(C)Cl	136 °C
CCOC(=O)NN	46 °C
O=C(CCl)c1ccc(F)cc1	48 °C

From a melting point compilation (Tetko et al.)
